Converted amounts (≈) assume the structure as drawn. Structures can show the parent of a compound that is named as a salt. Where two headings read alike, the source gives them in different places.
Experiments:
[1] = tested on: Staphylococcus aureus 209 P JC-1; test: Minimum Inhibitory Concentration (MIC), antibacterial spectrum in vitro; format: cell-based
[2] = tested on: Streptococcus faecalis ATCC 8043; test: as above; format: cell-based; conditions: Enterococcus faecalis
[3] = tested on: Esherichia coli NIHJ JC-2; test: as above; format: cell-based
Esherichia coli TEM DC-2 = test: as above; format: cell-based; conditions: read-out: Minimum Inhibitory Concentration (MIC)
Enterobacter cloacae P99 = test: as above; format: cell-based; conditions: P99, read-out: Minimum Inhibitory Concentration (MIC)
[4] = tested on: Klebsiella pneumoniae PCI 602; test: as above; format: cell-based
[5] = tested on: Salmonella typhimurium LT-2; test: as above; format: cell-based; conditions: Salmonella enterica, read-out: Minimum Inhibitory Concentration (MIC)
Proteus morganii 1510 = test: as above; format: cell-based
[6] = tested on: Citrobacter freundii GN-346; test: as above; format: cell-based
[7] = tested on: Pseudomonas aeruginosa MB-3833; test: as above; format: cell-based
[8] = tested on: Pseudomonas aeruginosa E-2; test: as above; format: cell-based
[9] = tested on: Pseudomonas aeruginosa RPL-11; test: as above; format: cell-based
[10] = Concentration in Blood Serum after subcutaneous dosing (bioassay using Escherichia coli); format: in vivo; conditions: mouse, sc, 25 mg/Kg subcutaneously, mice; for concentration at 0.5 h: 1/2 hour; for concentration at 0.25 h: 1/4 hour; for concentration at 5 min: 1/12 hour
Experimental: The concentration of the compound in the serum was determined by bioassay using Escherichia coli as assay microorganism.

[11] = tested on: Pseudomonas aeruginosa (GN 10362); test: Efficacy in Mice Infected with Pseudomonas aeruginosa (GN 10362); format: in vivo; conditions: GN10362, sc, 168 h
Source text: A systemic infection was produced by intraperitoneal injection of the appropriate pathogen to mice (five male mice in each group, average body weight 20 g), and the mice were received single subcutaneous dose of the compound one hour after the infection.

Pseudomonas aeruginosa = test: Antibacterial activity against Pseudomonas aeruginosa (from Table 1); format: cell-based; conditions: in words
Streptococcus faecalis = test: Antibacterial activity against Streptococcus faecalis (statement in words); format: cell-based
[12] = 209PJC1, Staphylococcus aureus 209 P JC-1, read-out: Minimum Inhibitory Concentration (MIC)
[13] = ATCC8043, Streptococcus faecalis ATCC 8043, read-out: Minimum Inhibitory Concentration (MIC)
[14] = PCI602, Klebsiella pneumoniae PCI 602, read-out: Minimum Inhibitory Concentration (MIC)
[15] = Morganella morganii, Proteus morganii 1510, read-out: Minimum Inhibitory Concentration (MIC)
[16] = GN346, Citrobacter freundii GN-346, read-out: Minimum Inhibitory Concentration (MIC)
[17] = MB3833, Pseudomonas aeruginosa MB-3833, read-out: Minimum Inhibitory Concentration (MIC)
[18] = E2, Pseudomonas aeruginosa E-2, read-out: Minimum Inhibitory Concentration (MIC)
[19] = RPL11, Pseudomonas aeruginosa RPL-11, read-out: Minimum Inhibitory Concentration (MIC)

SMILES	MIC [3] [µg/mL]	MIC (Esherichia coli TEM DC-2) [µg/mL]	MIC (Enterobacter cloacae P99) [µg/mL]	concentration at 0.5 h [10] [ng/mL]	concentration at 0.25 h [10] [ng/mL]	concentration at 5 min [10] [ng/mL]	concentration at 1 h [10] [ng/mL]	MIC [1, 12] [µg/mL]	MIC [2, 13] [µg/mL]	MIC [4, 14] [µg/mL]	MIC ([5]; Salmonella typhimurium LT-2) [µg/mL]	MIC (Proteus morganii 1510; [15]) [µg/mL]	MIC [6, 16] [µg/mL]	MIC [7, 17] [µg/mL]	MIC [8, 18] [µg/mL]	effectiveness against Pseudomonas aeruginosa (Pseudomonas aeruginosa)	effectiveness against Streptococcus faecalis (Streptococcus faecalis)	other results
CC(C)(O/N=C(\C(=O)N[C@@H]1C(=O)N2C(C(=O)[O-])=C(C[n+]3ccccc3)CS[C@H]12)c1csc(N)n1)C(=O)O [Ceftazidime, reference compound]	0.1 (≈ 0.183 µM)	0.5 (≈ 0.915 µM)	64 (≈ 117 µM)	11500	20000	13000	6300	–	–	–	–	–	–	–	–	–	–	MIC ([1]; Staphylococcus aureus, 209PJC1, read-out: Minimum Inhibitory Concentration (MIC)): 1.56 µg/mL (≈ 2.85 µM); MIC ([2]; ATCC8043, read-out: Minimum Inhibitory Concentration (MIC)): 50 µg/mL (≈ 91.5 µM); MIC ([4]; Klebsiella pneumoniae, PCI602, read-out: Minimum Inhibitory Concentration (MIC)): 0.1 µg/mL (≈ 0.183 µM); MIC ([5]; TYPHIMURIUM): 0.05 µg/mL (≈ 0.0915 µM); MIC (Proteus morganii 1510; Morganella morganii, 1510, read-out: Minimum Inhibitory Concentration (MIC)): 12.5 µg/mL (≈ 22.9 µM); MIC ([6]; Citrobacter freundii, GN346, read-out: Minimum Inhibitory Concentration (MIC)): 25 µg/mL (≈ 45.7 µM); MIC ([7]; Pseudomonas aeruginosa, MB3833, read-out: Minimum Inhibitory Concentration (MIC)): 0.78 µg/mL (≈ 1.43 µM); MIC ([8]; Pseudomonas aeruginosa, E2, read-out: Minimum Inhibitory Concentration (MIC)): 0.78 µg/mL (≈ 1.43 µM); MIC ([9]; Pseudomonas aeruginosa, RPL11, read-out: Minimum Inhibitory Concentration (MIC)): 3 µg/mL (≈ 5.49 µM); ED50 [11]: 0.22 mg/kg
CON=C(C(=O)NC1C(=O)N2C(C(=O)[O-])=C(CSc3cc[n+](CC(F)(F)F)cc3)C(C)OC12)c1csc(N)n1 [Compound 6, (6R,7R)-7-((Z)-2-(2-Aminothiazole-4-yl)-2-methoxyiminoacetamide)-(2S)-2-methyl-3-(1-(2,2,2-trifluoroethyl)pyridinium-4-ylthiomethyl)-1-oxa-1-dethiaceph-3-em-4-carboxylate]	0.05 (≈ 0.0852 µM)	–	–	–	–	–	–	0.2 (≈ 0.341 µM)	12.5 (≈ 21.3 µM)	0.1 (≈ 0.17 µM)	< 0.025	6.25 (≈ 10.7 µM)	50 (≈ 85.2 µM)	3.13 (≈ 5.34 µM)	3.13 (≈ 5.34 µM)	effective against Pseudomonas aeruginosa	effective against Streptococcus faecalis	–
CON=C(C(=O)NC1C(=O)N2C(C(=O)[O-])=C(CSc3cc[n+](CC(=O)O)cc3)C(C)OC12)c1csc(N)n1 [Compound 7, (6R,7R)-7-((Z)-2-(2-Aminothiazole-4-yl)-2-methoxyiminoacetamide)-(2S)-2-methyl-3-(1-carboxymethylpyridinium-4-ylthiomethyl)-1-oxa-1-dethiaceph-3-em-4-carboxylate (Sodium Salt)]	< 0.025	–	–	–	–	–	–	0.39	12.5	0.025	< 0.025	0.78	6.25	12.5	12.5	–	effective against Streptococcus faecalis	–
CCON=C(C(=O)NC1C(=O)N2C(C(=O)[O-])=C(CSc3cc[n+](CC(=O)O)cc3)C(C)OC12)c1csc(N)n1 [Compound 8, (6R,7R)-7(Z)-2-(2-Aminothiazole-4-yl)-2-ethoxyiminoacetamide)-(2S)-2-methyl-3-(1-carboxymethylpyridinium-4-ylthiomethyl)-1-oxa-1-dethiaceph-3-em-4-carboxylate (Sodium Salt)]	0.1	–	–	–	–	–	–	0.39	6.25	0.05	0.05	0.78	6.25	12.5	12.5	–	effective against Streptococcus faecalis	–
CC1OC2C(NC(=O)C(=NOCC(=O)O)c3csc(N)n3)C(=O)N2C(C(=O)[O-])=C1CSc1cc[n+](CC(=O)O)cc1 [Compound 9, (6R,7R)-7-((Z)-2-(2-Aminothiazole-4-yl)-2-carboxymethoxyiminoacetamide)-(2S)-2-methyl-3-(1-carboxymethylpyridinium-4-ylthiomethyl)-1-oxa-1-dethiaceph-3-em-4-carboxylate (Sodium Salt)]	0.1	–	–	25000	32000	36000	5100	6.25	50	0.1	< 0.025	0.78	12.5	3.13	3.13	effective against Pseudomonas aeruginosa	–	–
CON=C(C(=O)NC1C(=O)N2C(C(=O)[O-])=C(CSc3cc[n+](C)cc3)COC12)c1csc(N)n1 [Compound 10, (6R,7R)-7-((Z)-2-(2-Aminothiazole-4-yl)-2-methoxyiminoacetamide)-3-(1-methylpyridinium-4-yl-thiomethyl)-1-oxa-1-dethiaceph-3-em-4-carboxylate]	< 0.025	–	–	–	–	–	–	0.1 (≈ 0.198 µM)	1.56 (≈ 3.09 µM)	0.025 (≈ 0.0495 µM)	< 0.025	1.56 (≈ 3.09 µM)	1.56 (≈ 3.09 µM)	6.25 (≈ 12.4 µM)	25 (≈ 49.5 µM)	–	effective against Streptococcus faecalis	–
CON=C(C(=O)NC1C(=O)N2C(C(=O)[O-])=C(CSc3cc[n+](CC(=O)O)cc3)COC12)c1csc(N)n1 [Compound 11, (6R,7R)-7-((Z)-2-(2-Aminothiazole-4-yl)-2-methoxyiminoacetamide)-3-(1-carboxymethylpyridinium-4-yl-thiomethyl)-1-oxa-1-dethiaceph-3-em-4-carboxylate (Sodium Salt)]	< 0.025	–	–	–	–	–	–	0.39	0.78	0.025	< 0.025	6.2	12.5	25	50	–	effective against Streptococcus faecalis	–
CCON=C(C(=O)NC1C(=O)N2C(C(=O)[O-])=C(CSc3cc[n+](CC(=O)O)cc3)COC12)c1csc(N)n1 [Compound 12, (6R,7R)-7-((Z)-2-(2-Aminothiazole-4-yl)-2-ethoxyiminoacetamido)-3-(1-carboxymethylpyridinium-4-ylthiomethyl)-1-oxa-1-dethiaceph-3-em-4-carboxylate (Sodium Salt)]	< 0.025	–	–	–	–	–	–	0.39	6.25	0.025	< 0.025	12.5	12.5	12.5	25	–	effective against Streptococcus faecalis	–
C[n+]1ccc(SCC2=C(C(=O)[O-])N3C(=O)C(NC(=O)C(=NOCC(=O)O)c4csc(N)n4)C3OC2)cc1 [Compound 13, (6R,7R)-7-((Z)-2-(2-Aminothiazole-4-yl)-2-carboxymethoxyiminoacetamide)-3-(1-methylpyridinium-4-ylthiomethyl)-1-oxa-1-dethiaceph-3-em-4-carboxylate (Sodium Salt)]	< 0.025	1	64	–	–	–	–	1.56	50	25	< 0.025	1.56	6.25	6.25	6.25	–	–	MIC [9, 19]: 128 µg/mL
CC(C)(ON=C(C(=O)NC1C(=O)N2C(C(=O)[O-])=C(CSc3cc[n+](CC(F)(F)F)cc3)COC12)c1csc(N)n1)C(=O)O [Compound 16, (6R,7R)-7-((Z)-2-(2-Aminothiazole-4-yl)-2-(2-carboxyprop-2-oxyimino)acetamide)-3-(1-(2,2,2-trifluoroethyl)-pyridinium-4-ylthiomethyl)-1-oxa-1-dethiaceph-3-em-4-carboxylate (Sodium Salt)]	0.1	0.03	128	11000	20000	16000	2400	3.13	> 100	0.1	< 0.025	6.25	25	1.56	1.56	effective against Pseudomonas aeruginosa	–	MIC [9, 19]: 32 µg/mL
